Patent publication US20140256618A1, “Haprolid and Derivatives Thereof as Inhibitors of HCV” (Twincore Zentrum Fuer Experimentelle und Klinische …, priority 2011, published 2014)

How the values were obtained:
[1] = system: Huh7-Lunet-hCD81-Gluc cells; assay: Cell viability by G-Luc activity in the whole life cycle assay; details: FIG. 1
[2] = system: lipoprotein secretion (ApoB/E), albumin; assay: Secretion of lipoproteins (ApoB/E) or albumin; assay type: cell-based; details: FIG. 6
Source text: (§1) Moreover, an influence of the compound on the steps leading to assembly and release of infectious HCV particles has been shown. Total production of infectious virus particles was reduced about 3-fold (FIG. 5c). […] However, this was not caused by an influence of the drug on lipoprotein secretion (ApoB/E, FIG. 6), on which HCV secretion strongly depends, nor a general influence on the secretory capacity of the cell as shown for albumin (FIG. 6).

HCV RNA replication = assay: Subgenomic HCV replicon assay (influence on replication); assay type: cell-based, Hepatitis C virus; details: subgenomic HCV replicon system, at non-toxic concentrations, FIG. 2
Description: Haprolid has been identified as a potent inhibitor of HCV. Experiments confirmed its antiviral activity at nanomolar concentrations (EC50<6 nM) with toxicity in low micromolar ranges (TC50˜0.1 μM) (FIG. 1). […] Employing HCVTCP, influences on HCV RNA replication and virus entry are quantified.

HCV = assay: microbe, parasite or virus in culture; assay type: cell-based; details: Hepatitis C virus, read-out: antiviral activity EC50
[3] = system: retroviral particles pseudotyped with the glycoproteins of either HCV, VSV or MLV
infectious HCV particles = assay: Influence on assembly and/or release of infectious HCV particles; assay type: cell-based, Hepatitis C virus
Source text: as §1
FIGS. 5a-c show the influence on assembly and/or release.

HCVTCP = assay: Preincubation experiment in the context of HCV TCP infection; assay type: cell-based, Hepatitis C virus; details: HCVTCP system, FIG. 3

Compound: COC(C)CCCC1CC/C(C)=C\CC(=O)NC(Cc2ccccc2)C(=O)N(C)CC(=O)N(C)C(CC(C)C)C(=O)N2CCCC2C(=O)O1 (stereo not drawn) [Haprolid]
- toxicity TC50 [1]: ~100 nM
- influence on secretion of albumin [2]: no influence
- influence on secretion of lipoproteins (ApoB/E) [2]: no influence
- reduction of HCV RNA replication (HCV RNA replication): 5 fold
- EC50 (HCV): < 6 nM
- decrease of infectivity of pseudotyped retroviral particles [3]: 100-1000 fold
- reduction of intracellular virus titer (infectious HCV particles; FIG. 5a): 100 fold
- reduction of total production of infectious virus particles (infectious HCV particles; FIG. 5c): about 3 fold
- effect of preincubation of cells or of virus compared with addition of compound during infection (HCVTCP): only preincubation of the cells, but not of the virus resulted in a comparable effect
